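Step 1: Grow cells in 96-well plates. Step 2: Expose to compound for 48 hours at 5 concentrations. Step 3: Interpolate endpoints linearly; if unreached, use highest concentration. GI50 = concentration required for 50% inhibition of growth.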 Calls of active or inactive are those of the source. No stated cut-off is given here; in the data, active = GI50 up to about 1.1 µM and inactive = higher.
What was measured:
Assay in all cases: NCI anticancer screen, dose series, 48 h
HCC 2998 = tested on: HCC 2998
HOP-62 = tested on: HOP-62
HCT-116 = tested on: HCT-116
HCT-15 = tested on: HCT-15
NCI-H522 = tested on: NCI-H522
A498 = tested on: A498
SK-MEL-5 = tested on: SK-MEL-5
DMS-114 = tested on: DMS-114
A549 = tested on: A549
TK-10 = tested on: TK-10
UACC-257 = tested on: UACC-257
HT-29 = tested on: HT-29
KM12 = tested on: KM12
OVCAR-8 = tested on: OVCAR-8
UO-31 = tested on: UO-31
CCRF-CEM = tested on: CCRF-CEM
IGROV-1 = tested on: IGROV-1

SMILES | GI50 (HCC 2998) | GI50 (HOP-62) | GI50 (HCT-116) | GI50 (HCT-15) [µM] | GI50 (NCI-H522) | GI50 (A498) | GI50 (SK-MEL-5) | GI50 (DMS-114) | GI50 (A549) | GI50 (TK-10) | GI50 (UACC-257) | GI50 (HT-29) | GI50 (KM12) | GI50 (OVCAR-8) | GI50 (UO-31) | GI50 (CCRF-CEM) | GI50 (IGROV-1)
CN(C)c1ccc(C2CC(=O)C(C#N)=C(c3ccccc3)NN2C)cc1 (centres undefined) | 22.1 µM (inactive) | 12.8 µM (inactive) | 11.5 µM (inactive) | 4.33 | 3.56 µM (inactive) | 27.6 µM (inactive) | 3.54 µM (inactive) | 30.3 µM (inactive) | 8.04 µM (inactive) | > 100 µM (inactive) | 6.76 µM (inactive) | 5.14 µM (inactive) | 6.04 µM (inactive) | – | – | – | –
N#Cc1ccccc1NC(=O)/C(=N\Nc1ccc([N+](=O)[O-])cc1)C1C(=O)NC(=O)NC1=O | > 100 µM (inactive) | > 100 µM (inactive) | > 100 µM (inactive) | > 100 | 92.3 µM (inactive) | > 100 µM (inactive) | > 100 µM (inactive) | > 100 µM (inactive) | > 100 µM (inactive) | > 100 µM (inactive) | > 100 µM (inactive) | – | > 100 µM (inactive) | > 100 µM (inactive) | 62.8 µM (inactive) | > 100 µM (inactive) | > 100 µM (inactive)
C=C(CN(C)C)C(=O)c1ccccc1C | > 100 µM (inactive) | > 100 µM (inactive) | 24.8 µM (inactive) | 24.9 | 5.69 µM (inactive) | > 100 µM (inactive) | > 86.5 µM (inactive) | 21.2 µM (inactive) | > 100 µM (inactive) | > 74.6 µM (inactive) | > 55.7 µM (inactive) | > 100 µM (inactive) | > 100 µM (inactive) | > 100 µM (inactive) | 37.4 µM (inactive) | 7.85 µM (inactive) | > 100 µM (inactive)
COc1ccc(NC(=O)C(=O)c2c(O)c3ccc(O)cc3oc2=O)c([N+](=O)[O-])c1 | > 100 µM (inactive) | – | > 100 µM (inactive) | > 100 | > 100 µM (inactive) | > 100 µM (inactive) | > 100 µM (inactive) | > 100 µM (inactive) | > 100 µM (inactive) | > 100 µM (inactive) | > 100 µM (inactive) | > 100 µM (inactive) | > 100 µM (inactive) | – | > 100 µM (inactive) | > 100 µM (inactive) | > 100 µM (inactive)
O=C(N/C=C1\C(=O)Oc2ccccc2C1=O)Nc1ccccc1 | 58.1 µM (inactive) | – | 37.7 µM (inactive) | 40.3 | 58.5 µM (inactive) | 35.3 µM (inactive) | 25.8 µM (inactive) | 44.9 µM (inactive) | 53.1 µM (inactive) | 34 µM (inactive) | 91.2 µM (inactive) | > 100 µM (inactive) | 64 µM (inactive) | 44.1 µM (inactive) | 28.3 µM (inactive) | > 100 µM (inactive) | 51.2 µM (inactive)
CC1(C(=O)Nc2ccc3cc4ccccc4cc3c2)CC2(C)CC(C)(C1)C(O)NC2=O (centres undefined) | > 100 µM (inactive) | > 100 µM (inactive) | > 100 µM (inactive) | > 100 | – | > 100 µM (inactive) | > 100 µM (inactive) | 92 µM (inactive) | 98.4 µM (inactive) | 63 µM (inactive) | > 100 µM (inactive) | 92.5 µM (inactive) | > 100 µM (inactive) | > 100 µM (inactive) | > 100 µM (inactive) | 34.4 µM (inactive) | > 100 µM (inactive)
O=C(Nc1c(Cl)cc([N+](=O)[O-])cc1Cl)C(=O)C(C(=O)c1ccncc1)C1OC(=O)c2ccccc21 (centres undefined) | > 100 µM (inactive) | > 100 µM (inactive) | > 100 µM (inactive) | > 100 | > 100 µM (inactive) | > 100 µM (inactive) | – | > 100 µM (inactive) | > 100 µM (inactive) | > 100 µM (inactive) | > 100 µM (inactive) | > 100 µM (inactive) | > 100 µM (inactive) | > 100 µM (inactive) | > 100 µM (inactive) | > 100 µM (inactive) | > 100 µM (inactive)

— ChEMBL document CHEMBL1201862, “PubChem BioAssay data set” (2004)
